The source of these data is US20230265116A1, “DEGRADATION OF (EGFR) BY CONJUGATION OF EGFR INHIBITORS WITH E3 LIGASE LIGAND AND METHODS OF USE” (BEIGENE, LTD., priority 2020, published 2023).

In assay [1] the target is T1, EGFR L858R/T790M/C797S (BaF3-LTC cells) (Homo sapiens, UniProt P00533, C797S/L858R/T790M).
T1 construct: expressed in transfected cells; host or cells: BaF3
The experiment in a line: EGFR degradation HTRF assay, BaF3-LTC cells. The format is cell-based. Particulars: BaF3-LTC cells; for DC50: EGFR degradation, IC50 (DC50) from curve fit, read-out: DC50(nM) BaF3-LTC; for Dmax: maximum percentage of inhibition (degradation), read-out: Dmax (%) BaF3-LTC. In a few lines:
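EGFR remaining after a 16 h, 37 °C exposure (8 doses, 5-fold steps from 10 uM final, 0.2% DMSO) was quantified by HTRF antibodies in cell lysate. Percent inhibition relative to DMSO control was fitted by four-parameter logistic to give DC50; Dmax denotes maximal degradation.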

Assay [2] relates to EGFR Del19/T790M/C797S (H1975-clone #28). The experiment in a line: EGFR degradation HTRF assay, H1975-clone #28 DTC cells. The format is cell-based. Particulars: H1975 # 28 DTC cells; for DC50: EGFR degradation, IC50 (DC50) from curve fit, read-out: DC50(nM) H1975 # 28 DTC; for Dmax (%) H1975 # 28 DTC: maximum percentage of inhibition (degradation). The gist of the method:
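The test uses H1975 clonal lines carrying lentiviral mutant EGFR with endogenous copies removed, treated 16h at 37° C., 5% CO2. EGFR left in the lysate is quantified by HTRF, and DC50 is derived from an 8-dose curve starting at 10 uM final.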
(In TR-FRET formats the signal depends on donor and acceptor labels being close together.)

The structures appear in SMILES notation.

T1 sequence (P00533 25-1210 T790M/C797S/L858R): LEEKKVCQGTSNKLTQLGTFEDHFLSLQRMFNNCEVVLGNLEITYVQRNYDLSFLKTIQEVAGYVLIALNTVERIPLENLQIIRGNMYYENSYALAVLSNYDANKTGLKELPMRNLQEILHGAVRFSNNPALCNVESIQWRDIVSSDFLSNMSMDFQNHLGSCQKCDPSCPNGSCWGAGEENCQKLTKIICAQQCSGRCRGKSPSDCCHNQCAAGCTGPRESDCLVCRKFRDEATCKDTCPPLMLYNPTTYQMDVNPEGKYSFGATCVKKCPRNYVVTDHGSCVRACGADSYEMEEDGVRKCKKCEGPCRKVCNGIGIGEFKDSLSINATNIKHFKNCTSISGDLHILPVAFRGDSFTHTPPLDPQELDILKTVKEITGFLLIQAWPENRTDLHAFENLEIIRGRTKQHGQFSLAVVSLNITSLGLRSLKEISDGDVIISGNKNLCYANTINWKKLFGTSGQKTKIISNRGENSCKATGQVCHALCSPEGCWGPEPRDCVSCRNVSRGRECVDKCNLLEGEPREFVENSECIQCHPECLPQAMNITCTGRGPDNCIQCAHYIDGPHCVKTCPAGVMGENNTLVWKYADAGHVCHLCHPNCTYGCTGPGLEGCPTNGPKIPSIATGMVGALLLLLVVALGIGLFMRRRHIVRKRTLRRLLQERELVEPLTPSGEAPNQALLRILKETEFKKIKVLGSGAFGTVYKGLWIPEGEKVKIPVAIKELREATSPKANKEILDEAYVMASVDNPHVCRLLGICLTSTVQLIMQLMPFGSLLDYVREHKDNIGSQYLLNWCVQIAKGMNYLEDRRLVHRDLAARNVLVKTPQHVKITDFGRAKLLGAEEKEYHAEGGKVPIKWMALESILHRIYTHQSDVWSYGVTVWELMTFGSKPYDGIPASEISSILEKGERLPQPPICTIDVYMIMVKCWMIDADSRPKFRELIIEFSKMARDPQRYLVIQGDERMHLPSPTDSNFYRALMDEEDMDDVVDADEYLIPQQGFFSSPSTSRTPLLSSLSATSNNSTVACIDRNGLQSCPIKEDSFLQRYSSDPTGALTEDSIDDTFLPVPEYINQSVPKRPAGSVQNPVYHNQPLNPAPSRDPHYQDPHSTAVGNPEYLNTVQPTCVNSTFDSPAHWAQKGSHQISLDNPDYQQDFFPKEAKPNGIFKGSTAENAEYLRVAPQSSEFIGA

On to `CCc1cc(Nc2ncc(Br)c(Nc3ccc4nc(C)ccc4c3P(C)(C)=O)n2)c(OC)cc1N1CCC(N2CCN(CCC3CCN(c4cc(F)c(C5CCC(=O)NC5=O)c(F)c4)CC3)C(=O)C2)CC1` (stereo not drawn) [Example 695, 3-(4-(4-(2-(4-(1-(4-((5-bromo-4-((5-(dimethylphosphoryl)-2-methylquinolin-6-yl)amino)pyrimidin-2-yl)amino)-2-ethyl-5-methoxyphenyl)piperidin-4-yl)-2-oxopiperazin-1-yl)ethyl)piperidin-1-yl)-2,6-difluorophenyl)piperidine-2,6-dione], for which, in assay [1], the DC50 came to 12.7 nM and the Dmax is 93.5%. For the same compound, in assay [2], the DC50 amounted to 3.06 nM and the “Dmax (%) H1975 # 28 DTC” value was found to be 68.81%.

Turning to `CCc1cc(Nc2ncc(Br)c(Nc3ccc4nc(CO)ccc4c3P(C)(C)=O)n2)c(OC)cc1N1CCC(N2CCN(C(=O)[C@@H]3CCN(c4cc(F)c(C5CCC(=O)NC5=O)c(F)c4)C3)CC2)CC1` (stereo partly drawn) [Example 696, 3-(4-((R)-3-(4-(1-(4-((5-bromo-4-((5-(dimethylphosphoryl)-2-(hydroxymethyl)quinolin-6-yl)amino)pyrimidin-2-yl)amino)-2-ethyl-5-methoxyphenyl)piperidin-4-yl)piperazine-1-carbonyl)pyrrolidin-1-yl)-2,6-difluorophenyl)piperidine-2,6-dione], in assay [1], the DC50 is 4.53 nM and the Dmax was found to be 92.3%. In assay [2], the DC50 was determined as 0.647 nM and the “Dmax (%) H1975 # 28 DTC” value was 75.49%.

For the compound `CCc1cc(Nc2ncc(Br)c(Nc3ccc4nc(C)ccc4c3P(C)(C)=O)n2)c(OC)cc1N1CCC(N2CCN(C(=O)Cc3cccc4c3n(C)c(=O)n4C3CCC(=O)NC3=O)CC2)CC1` (stereo not drawn) [Example 697, 3-(4-(2-(4-(1-(4-((5-bromo-4-((5-(dimethylphosphoryl)-2-methylquinolin-6-yl)amino)pyrimidin-2-yl)amino)-2-ethyl-5-methoxyphenyl)piperidin-4-yl)piperazin-1-yl)-2-oxoethyl)-3-methyl-2-oxo-2,3-dihydro-1H-benzo[d]imidazol-1-yl)piperidine-2,6-dione], in assay [1], the DC50 turned out to be 9.65 nM and the Dmax was determined as 94.1%. Also, in assay [2], the DC50 was 1.19 nM and the “Dmax (%) H1975 # 28 DTC” value stood at 71.39%.

Regarding `CCOc1cc(N2CCC(N3CCN(CCc4c(C(F)(F)F)ccc5c4oc(=O)n5C4CCC(=O)NC4=O)CC3)CC2)c(CC)cc1Nc1ncc(Br)c(Nc2ccc3nc(CC)ccc3c2P(C)(C)=O)n1` (stereo not drawn) [Example 724, 3-(7-(2-(4-(1-(4-((5-bromo-4-((5-(dimethylphosphoryl)-2-ethylquinolin-6-yl)amino)pyrimidin-2-yl)amino)-5-ethoxy-2-ethylphenyl)piperidin-4-yl)piperazin-1-yl)ethyl)-2-oxo-6-(trifluoromethyl)benzo[d]oxazol-3(2H)-yl)piperidine-2,6-dione], in assay [1], the DC50 was 55.1 nM and the greatest degradation seen (Dmax) came to 85.6%. In addition, in assay [2], the half-maximal degradation concentration (DC50) amounted to 2.86 nM and the “Dmax (%) H1975 # 28 DTC” value stood at 75.94%.

Take `CCOc1cc(N2CCC(N3CCN(CCCc4cc(Cl)cc5c4oc(=O)n5C4CCC(=O)NC4=O)CC3)CC2)c(CC)cc1Nc1ncc(Br)c(Nc2ccc3nc(CC)ccc3c2P(C)(C)=O)n1` (stereo not drawn) [Example 726, 3-(7-(3-(4-(1-(4-((5-bromo-4-((5-(dimethylphosphoryl)-2-ethylquinolin-6-yl)amino)pyrimidin-2-yl)amino)-5-ethoxy-2-ethylphenyl)piperidin-4-yl)piperazin-1-yl)propyl)-5-chloro-2-oxobenzo[d]oxazol-3(2H)-yl)piperidine-2,6-dione]: in assay [1], the DC50 amounted to 7.11 nM and the Dmax came to 96.7%. Moreover, in assay [2], the DC50 came to 1.46 nM and the “Dmax (%) H1975 # 28 DTC” value was determined as 74.13%.

Turning to `CCOc1cc(N2CCC(N3CCN(C(=O)[C@H]4CN(c5cc(F)c([C@H]6CCC(=O)NC6=O)c(F)c5)CC4(C)C)CC3)CC2)c(C)cc1Nc1ncc(Br)c(Nc2ccc3nc(C)ccc3c2P(C)(C)=O)n1` [Example 727, (R)-3-(4-((R)-4-(4-(1-(4-((5-bromo-4-((5-(dimethylphosphoryl)-2-methylquinolin-6-yl)amino)pyrimidin-2-yl)amino)-5-ethoxy-2-methylphenyl)piperidin-4-yl)piperazine-1-carbonyl)-3,3-dimethylpyrrolidin-1-yl)-2,6-difluorophenyl)piperidine-2,6-dione], the DC50 in assay [1] is 8.61 nM. In assay [2], the DC50 stood at 4.29 nM and the “Dmax (%) H1975 # 28 DTC” value amounted to 77.39%.

With `CCOc1cc(N2CCC(N3CCN(CCc4cc(F)c([C@H]5CCC(=O)NC5=O)c(F)c4)CC3)CC2)c(CC)cc1Nc1ncc(Br)c(Nc2ccc3nc(C)c(F)cc3c2P(C)(C)=O)n1` [Example 728, (R)-3-(4-(2-(4-(1-(4-((5-bromo-4-((5-(dimethylphosphoryl)-3-fluoro-2-methylquinolin-6-yl)amino)pyrimidin-2-yl)amino)-5-ethoxy-2-ethylphenyl)piperidin-4-yl)piperazin-1-yl)ethyl)-2,6-difluorophenyl)piperidine-2,6-dione], the results for the half-maximal degradation concentration (DC50) in assay [1] and in assay [2] were 9.14 nM and 0.803 nM, respectively. In addition, the “Dmax (%) H1975 # 28 DTC” value in assay [2] was 87.57%.

On to `COc1cc(N2CCC(N3CCN(C(=O)[C@H]4CN(c5cc(F)c([C@H]6CCC(=O)NC6=O)c(F)c5)CC4(C)C)CC3)CC2)c(C)cc1Nc1ncc(Br)c(Nc2ccc3nc(C)c(F)cc3c2P(C)(C)=O)n1` [Example 729, (R)-3-(4-((R)-4-(4-(1-(4-((5-bromo-4-((5-(dimethylphosphoryl)-3-fluoro-2-methylquinolin-6-yl)amino)pyrimidin-2-yl)amino)-5-methoxy-2-methylphenyl)piperidin-4-yl)piperazine-1-carbonyl)-3,3-dimethylpyrrolidin-1-yl)-2,6-difluorophenyl)piperidine-2,6-dione], for which the half-maximal degradation concentration (DC50) in assay [1] came out at 5.59 nM; in assay [2], 1.13 nM. In addition, the “Dmax (%) H1975 # 28 DTC” value in assay [2] was found to be 88.94%.

As for `CCOc1cc(N2CCC(N3CCN(CCc4cc(F)c([C@H]5CCC(=O)NC5=O)c(F)c4)CC3)CC2)c(CC)cc1Nc1ncc(Cl)c(Nc2cc(F)c3nc(CC)ccc3c2P(C)(C)=O)n1` [Example 730, (R)-3-(4-(2-(4-(1-(4-((5-chloro-4-((5-(dimethylphosphoryl)-2-ethyl-8-fluoroquinolin-6-yl)amino)pyrimidin-2-yl)amino)-5-ethoxy-2-ethylphenyl)piperidin-4-yl)piperazin-1-yl)ethyl)-2,6-difluorophenyl)piperidine-2,6-dione], the DC50 in assay [1] amounted to 81.1 nM. For the same compound, in assay [2], the DC50 was 8.9 nM and the “Dmax (%) H1975 # 28 DTC” value was determined as 81.41%.

As to `CCOc1cc(N2CCC(N3CCN(CCc4c(F)cc(F)c5c4oc(=O)n5C4CCC(=O)NC4=O)CC3)CC2)c(CC)cc1Nc1ncc(Br)c(Nc2ccc3nc(CC)ccc3c2P(C)(C)=O)n1` (stereo not drawn) [Example 731, 3-(7-(2-(4-(1-(4-((5-bromo-4-((5-(dimethylphosphoryl)-2-ethylquinolin-6-yl)amino)pyrimidin-2-yl)amino)-5-ethoxy-2-ethylphenyl)piperidin-4-yl)piperazin-1-yl)ethyl)-4,6-difluoro-2-oxobenzo[d]oxazol-3(2H)-yl)piperidine-2,6-dione], the half-maximal degradation concentration (DC50) was found to be 42.5 nM in assay [1] and 4.55 nM in assay [2]. In addition, in assay [2], the “Dmax (%) H1975 # 28 DTC” value turned out to be 93.44%.

With `COc1cc(N2CCC(N3CCN(C(=O)[C@@H]4CCN(c5cc(F)c([C@H]6CCC(=O)NC6=O)c(F)c5)C4)CC3)CC2)c(C)cc1Nc1ncc(Br)c(Nc2ccc3nc(C)c(F)cc3c2P(C)(C)=O)n1` [Example 732, (R)-3-(4-((R)-3-(4-(1-(4-((5-bromo-4-((5-(dimethylphosphoryl)-3-fluoro-2-methylquinolin-6-yl)amino)pyrimidin-2-yl)amino)-5-methoxy-2-methylphenyl)piperidin-4-yl)piperazine-1-carbonyl)pyrrolidin-1-yl)-2,6-difluorophenyl)piperidine-2,6-dione], the 50% degradation concentration (DC50) in assay [1] is 4.07 nM. In assay [2], the 50% degradation concentration (DC50) was 0.624 nM and the “Dmax (%) H1975 # 28 DTC” value is reported as 86.49%.

Consider `CCOc1cc(N2CCC(N3CCN(CCc4cc(F)c([C@H]5CCC(=O)NC5=O)c(F)c4)CC3)CC2)c(CC)cc1Nc1ncc(C)c(Nc2cc(F)c3nc(CC)ccc3c2P(C)(C)=O)n1` [Example 733, (R)-3-(4-(2-(4-(1-(4-((4-((5-(dimethylphosphoryl)-2-ethyl-8-fluoroquinolin-6-yl)amino)-5-methylpyrimidin-2-yl)amino)-5-ethoxy-2-ethylphenyl)piperidin-4-yl)piperazin-1-yl)ethyl)-2,6-difluorophenyl)piperidine-2,6-dione], for which the 50% degradation concentration (DC50) in assay [1] was 89.9 nM. For the same compound, in assay [2], the DC50 stood at 7.25 nM and the “Dmax (%) H1975 # 28 DTC” value turned out to be 84.52%.

Take `CCc1ccc2c(P(C)(C)=O)c(Nc3nc(Nc4cc(CC)c(N5CCC(N6CCN(CCCOc7cc(F)c([C@H]8CCC(=O)NC8=O)c(F)c7)CC6)CC5)cc4OC)ncc3Br)ccc2n1` [Example 734, (R)-3-(4-(3-(4-(1-(4-((5-bromo-4-((5-(dimethylphosphoryl)-2-ethylquinolin-6-yl)amino)pyrimidin-2-yl)amino)-2-ethyl-5-methoxyphenyl)piperidin-4-yl)piperazin-1-yl)propoxy)-2,6-difluorophenyl)piperidine-2,6-dione]: in assay [1], the DC50 was determined as 7.79 nM and the Dmax was determined as 92.2%. Moreover, in assay [2], the DC50 stood at 0.9 nM and the “Dmax (%) H1975 # 28 DTC” value is given as 76.3%.

Broadly, the DC50 is the concentration at which degradation of the target reaches its halfway point. What is called Dmax is the largest share of the target that was removed.
